Results reported in patent publication EP4656642A1, “ESTROGEN RECEPTOR PROTEOLYSIS TARGETING CHIMERA COMPOUND AND USE THEREOF” (GAN & LEE PHARM CO., LTD, priority 2023, dated 2024).

How the values were obtained:
Format in all cases: cell-based
T-47D cells = experiment: Inhibition of cell proliferation in T-47D cells (CCK-8, 6 days); conditions: 6 days of treatment, Table 3
Outline: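 Viability read-out was CCK-8 after 6 days of compound treatment (37 °C, 5% CO2) across graded concentrations. Cells were T-47D seeded at 3,000 per well in 1640 medium plus 10% FBS. IC50 was calculated against proliferation.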

MCF-7 cells = experiment: Inhibition of cell proliferation of MCF-7 cells (CCK-8, 9 days); conditions: treated for 9 days, CCK-8 kit (Table 6)
Outline: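 Read-out was CCK-8 viability after 9-day continuous exposure (37°C, 5% CO2) of MCF-7 cells plated at 800/well in 10% FBS DMEM across several compound concentrations. Values are proliferation IC50s.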

ERα [1] = molecular target: T1, ERα (Homo sapiens, UniProt P03372); experiment: Degradation of ERα in MCF-7 cells (immunoblotting, 4 h)
T1 sequence (P03372 1-595): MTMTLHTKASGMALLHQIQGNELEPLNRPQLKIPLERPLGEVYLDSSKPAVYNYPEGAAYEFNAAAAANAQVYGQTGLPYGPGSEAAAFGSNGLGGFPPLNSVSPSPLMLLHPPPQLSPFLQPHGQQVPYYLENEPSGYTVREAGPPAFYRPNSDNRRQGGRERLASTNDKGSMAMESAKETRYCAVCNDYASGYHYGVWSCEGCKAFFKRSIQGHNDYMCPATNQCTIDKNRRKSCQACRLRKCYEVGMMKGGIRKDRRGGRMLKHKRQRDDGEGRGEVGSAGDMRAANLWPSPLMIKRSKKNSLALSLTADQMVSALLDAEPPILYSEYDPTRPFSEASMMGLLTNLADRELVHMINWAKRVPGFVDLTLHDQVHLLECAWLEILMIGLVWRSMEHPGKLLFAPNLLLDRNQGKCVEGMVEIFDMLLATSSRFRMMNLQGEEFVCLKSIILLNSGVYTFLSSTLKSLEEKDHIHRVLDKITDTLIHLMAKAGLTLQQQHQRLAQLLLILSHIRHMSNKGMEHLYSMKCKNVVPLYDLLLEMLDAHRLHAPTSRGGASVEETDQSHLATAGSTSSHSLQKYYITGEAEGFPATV
Outline: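 Degradation rate reflects ERα band intensity, corrected to an internal reference protein, relative to control. Values come from Western blotting of lysates from MCF-7 cells exposed 4 h at 37°C to compounds at final concentrations of 0.15-1000nM.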

ERα [2] = molecular target: T1, ERα; experiment: Degradation of ERα in T-47D cells (immunoblotting, 4 h); design: host or cells: T-47D
Outline: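 ERα protein levels were assessed by immunoblot of RIPA lysates (with protease inhibitor) after 4 h exposure at 37°C. Compound was added in DMSO to T-47D cells at final concentrations of 0.15-1000 nM.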

IC50 (T-47D cells)	IC50 (MCF-7 cells)	Degradation rate (%) of ERα in MCF-7 cells (ERα [1]; 1nM compound)	Degradation rate (%) of ERα in MCF-7 cells (ERα [1]; 10nM compound)	Degradation rate (%) of ERα in T-47D cells (ERα [2]; 1nM compound)	Degradation rate (%) of ERα in T-47D cells (ERα [2]; 10nM compound)	Structure (SMILES)
12.2 nM	2920 nM	5%	15%	-10%	3%	O=C1CCC(N2Cc3cc4c(cc3C2=O)OC2(CC4)CN(C(=O)C3CCN(c4ccc([C@@H]5c6ccc(O)cc6CC[C@@H]5c5ccccc5)cc4)CC3)C2)C(=O)N1 (stereo partly drawn) [A51]
20.2 nM	107 nM	36%	73%	16%	51%	O=C1CCC(N2Cc3c(ccc4c3OCC43CCN(CC4CCN(CC5CCN(c6ccc([C@@H]7c8ccc(O)cc8CC[C@@H]7c7ccccc7)cc6)CC5)CC4)CC3)C2=O)C(=O)N1 (stereo partly drawn) [A102]
1.44 nM	4020 nM	35%	58%	52%	77%	COC(=O)[C@@H]1C[C@H](N2CCC3(CC2)COc2c3ccc3c2CN(C2CCC(=O)NC2=O)C3=O)CCN1C1CCN(c2ccc([C@@H]3c4ccc(O)cc4CC[C@@H]3c3ccccc3)cc2)CC1 (stereo partly drawn) [H32]
7.97 nM	757 nM	-20%	6%	-1%	17%	O=C1CCC(N2Cc3ccc4c(c3C2=O)OCC42CCN(C3CCC4(CC3)CN(c3ccc([C@@H]5c6ccc(O)cc6CC[C@@H]5c5ccccc5)cc3)C4)CC2)C(=O)N1 (stereo partly drawn) [L25]
3.59 nM	9560 nM	32%	71%	11%	63%	CN(C(=O)CN1CCC2(CC1)COc1c2ccc2c1CN(C1CCC(=O)NC1=O)C2=O)C1CCC2(CC1)CCN(c1ccc([C@@H]3c4ccc(O)cc4CC[C@@H]3c3ccccc3)cc1)CC2 (stereo partly drawn) [H50]
1.3 nM	6.7 nM	43%	66%	52%	77%	O=C1CCC(N2Cc3c(ccc4c3OCC43CCN(C(=O)C4CCC(CN5CCN(c6ccc(C7c8ccc(O)cc8CCC7c7ccccc7)cc6)CC5)CC4)CC3)C2=O)C(=O)N1 (stereo not drawn) [C5]
1.2 nM	93.6 nM	39%	74%	49%	82%	C[C@@H]1Cc2c([nH]c3ccccc23)[C@@H](c2c(F)cc(N3CCC4(CCN(CC(=O)N5CCC6(CC5)COc5c6ccc6c5CN(C5CCC(=O)NC5=O)C6=O)C4)CC3)cc2F)N1CC(F)F (stereo partly drawn) [A111]
1.19 nM	5.12 nM	48%	90%	51%	83%	O=C1CCC(N2Cc3c(ccc4c3OCC43CCN(C4CCN(C5CC6(CCN(c7ccc([C@@H]8c9ccc(O)cc9CC[C@@H]8c8ccccc8)cc7)CC6)C5)[C@@H](C(=O)N5CC(F)(F)C5)C4)CC3)C2=O)C(=O)N1 (stereo partly drawn) [A98]
26.9 nM	7370 nM	38%	60%	38%	71%	C[C@@H]1Cc2c(ccc3[nH]ncc23)C(c2ccc(N3CCC(N4CC[C@@H](N5CCC6(CC5)COc5c6ccc6c5CN(C5CCC(=O)NC5=O)C6=O)[C@@H](F)C4)CC3)cn2)N1CC(F)(F)F (stereo partly drawn) [H57]
0.96 nM	15 nM	41%	55%	50%	66%	C[C@@H]1Cc2c(ccc3[nH]ncc23)[C@@H](c2c(F)cc(N3CCC4(CCN(C(=O)CN5CCC6(CC5)COc5c6ccc6c5CN(C5CCC(=O)NC5=O)C6=O)C4)CC3)cc2F)N1CC(F)F (stereo partly drawn) [C14]
0.61 nM	3.24 nM	41%	62%	46%	70%	C[C@@H]1Cc2c(ccc3[nH]ncc23)[C@@H](c2c(F)cc(N3CCC4(CCN(C(=O)CN5CCC6(CC5)COc5c6ccc6c5CN(C5CCC(=O)NC5=O)C6=O)CC4)CC3)cc2F)N1CC(F)F (stereo partly drawn) [C13]
1.47 nM	16.2 nM	25%	61%	58%	78%	O=C1CCC(N2Cc3c(ccc4c3OCC43CCN(C4CCN(C(=O)C5CCN(c6ccc([C@@H]7c8ccc(O)cc8CC[C@@H]7c7ccccc7)cc6)CC5)[C@H](C(=O)N5CCC5)C4)CC3)C2=O)C(=O)N1 (stereo partly drawn) [H45]
124 nM	24100 nM	-39%	-41%	-16%	8%	O=C1CCC(N2Cc3cc4c(cc3C2=O)OC2(CC4)CN(C3CCN(C(=O)c4ccc([C@@H]5c6ccc(O)cc6CC[C@@H]5c5ccccc5)cc4)CC3)C2)C(=O)N1 (stereo partly drawn) [H11]
1.22 nM	1320 nM	-18%	-14%	13%	-14%	O=C1CCC(N2Cc3c(ccc4c3OCC43CCN(CCN4CCN(c5ccc([C@@H]6c7ccc(O)cc7CC[C@@H]6c6ccccc6)cc5)CC4)CC3)C2=O)C(=O)N1 (stereo partly drawn) [H20]
68 nM	174 nM	4%	13%	5%	28%	O=C1CCC(N2C(=O)c3cc4c(cc3C2=O)C2(CCN(C3CC5(CCN(c6ccc([C@@H]7c8ccc(O)cc8CC[C@@H]7c7ccccc7)cc6)CC5)C3)CC2)CO4)C(=O)N1 (stereo partly drawn) [A34]
2.74 nM	45 nM	22%	48%	54%	80%	O=C1CCC(N2Cc3ccc4c(c3C2=O)OCC42CCN(C3CCN(C(=O)C4CCN(c5ccc([C@@H]6c7ccc(O)cc7CC[C@@H]6c6ccccc6)cc5)CC4)CC3)CC2)C(=O)N1 (stereo partly drawn) [A94]
8.02 nM	19 nM	18%	57%	23%	71%	O=C1CCC(N2Cc3c(ccc4c3OCC43CCN(C4CCC5(CC4)CCN(c4ccc([C@@H]6c7ccc(O)cc7CC[C@@H]6c6ccccc6)cc4)CC5)CC3)C2=O)C(=O)N1 (stereo partly drawn) [L15]
25.1 nM	8.6 nM	45%	57%	34%	63%	C[C@@H]1Cc2c(ccc3[nH]ncc23)C(c2c(F)cc(N3CC4(CCC(N5CCC6(CC5)COc5c6ccc6c5CN(C5CCC(=O)NC5=O)C6=O)CC4)C3)cc2F)N1CC(F)F (stereo partly drawn) [G21]
